Data set [1] concerns human prostate (type 2) 5α-reductase. The note with it: result in words, cited from earlier work.
Data set [2] concerns human prostate (type 2) isozyme. The note with it: cited from earlier work.
The test system of data set [3] is human skin (type 1) isozyme. The note with it: cited from earlier work.
Data set [4] deals with dihydrotestosterone levels. The note with it: circulating finasteride concentrations comparable to Ki = 26 nM; result in words; cited from earlier work.
Data set [5] deals with T1, type 2 5α-reductase (Homo sapiens, UniProt P31213).
T1 construct: made in house
T1 sequence (P31213 1-254): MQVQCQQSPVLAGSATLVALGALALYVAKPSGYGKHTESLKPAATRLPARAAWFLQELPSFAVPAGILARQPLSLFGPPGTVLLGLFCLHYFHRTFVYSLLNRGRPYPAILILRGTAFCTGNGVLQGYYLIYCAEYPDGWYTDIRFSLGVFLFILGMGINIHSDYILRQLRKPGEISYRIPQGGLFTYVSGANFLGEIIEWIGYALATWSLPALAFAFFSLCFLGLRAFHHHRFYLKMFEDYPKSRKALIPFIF
Nature of the data set: Progress curves of DHT formation, slow-binding inhibition of baculovirus-expressed type 2 5α-reductase. It counts as biochemical. The method, then: Ethanol is included at 1% final concentration as the vehicle for introduction of inhibitors. The rate of production of [^3 H]dihydrotestosterone is approximately constant for up to 2 hours or 10% consumption of substrate. A unit of enzyme activity was defined as 1 pmol product/min, and is equal to 444 fmol enzyme under these conditions.
After quenching the reactions with an equal volume, or more, of water containing 1% trifluoroacetic acid, the [^3 H]dihydrotestosterone is isolated by direct injection onto a reverse phase C-18 column (Vydac, 4.6×250 mm, 300 Å, 5 micron), which is run in an isocratic system of 40% water (containing 0.1% trifluoroacetic acid) and 60% methanol at 1 mL/min. When tissue extracts are the source of enzyme, the quenched reactions are clarified by centrifugation at 10,000×g before analysis. Retention times are ~13 min for testosterone and ~20 min for dihydrotestosterone. The effluent containing the [^3 H]dihydrotestosterone peak (6 mL) is collected in a liquid scintillation vial and counted with AQUASOL 2 (14 mL, New England Nuclear) with an efficiency of 0.309. The assay is completely automated using a SUN SPARKSTATION 2 computer interfaced to a ZYMARK robot and ancillary equipment.
The native human enzyme was from prostate (type 2) or scalp (type 1) tissue, and the recombinant human enzymes were produced by the baculovirus expression system of Andersson, et al. (Chan, H. K., Geissler, W. M., Andersson, S., Sex Hormones and Antihormones in Endocrine Dependent Pathology: Basic and Clinical Aspects, M. Motta and M. Serio, eds., Elsevier Science 1994). […] Enzyme concentrations were determined by titration with finasteride, or [^3 H]finasteride, or from catalytic activity using kcat and Km values.
Alternatively, fractions may be collected and the samples counted on a scintillation counter. […] The time courses were fit to an integrated first-order rate equation (Equation 1), where A is product concentration, vo is the initial velocity, vs is the infinite-time velocity, and kobs is the first-order rate constant for progression of the enzyme between the two equilibrium states. […] (Ki=koff /kon).
A=vs t+(vo -vs)(1-e-^k obs^t)/kobs +Ao Equation

The test system of data set [6] is type 1 5α-reductase. Nature of the data set: Kinetic constants of type 1 5α-reductase. Type of data set: biochemical, human.
Substrate in data set [7]: C[C@]12CC[C@H]3[C@@H](CCC4=CC(=O)CC[C@@]43C)[C@@H]1CC[C@@H]2O
Nature of the data set: purified protein, by the assay type. The note with it: other: baculovirus-expressed type 2 enzyme, pH 7.2, 37° C.

“Also recorded” adds a separate entry of the source. Read-outs that look alike come from different tables or passages of the source.

Turning to `CC(C)(C)NC(=O)[C@H]1CC[C@H]2[C@@H]3CC[C@H]4NC(=O)C=C[C@]4(C)[C@H]3CC[C@]12C` [Finasteride, 17β-(N-tert-butylcarbamoyl)-3-oxo-4-aza-5α-androst-1-ene-3-one], the “inhibition of human prostate (type 2) enzyme” value in data set [1] is reported as “potent inhibitor of the human prostate enzyme”; in data set [1] (listed as finasteride) it was “potently inhibited by finasteride”. Moreover, the “rate constant for binding to the human prostate isozyme” value in data set [2] (Faller et al. 1993) is 270000 M⁻¹ s⁻¹. Further, in data set [2] (human prostate (type 2) isozyme, result in words), the “binding behavior / reversibility” value is on record as “slow-binding inhibitors; also recorded: essentially irreversible enzyme-inhibitor complex”. Besides, the Ki in data set [2] (printed as Ki <<1 nM, essentially irreversible complex, Faller et al. 1993) is under 1 nM. Also, the “inhibition of human skin (type 1) isozyme” value in data set [3] (result in words, listed as finasteride) was “relatively insensitive to finasteride; also recorded: not a significant inhibitor of human skin (type 1) isozyme at doses employed in the treatment of BPH”. In addition, in data set [3] (type 1, Tian et al. 1994), the “second-order rate constant for formation of the complex” value is 4000 M⁻¹ s⁻¹. Moreover, in data set [4], the “reduction of dihydrotestosterone levels” value is listed as “reduced levels of dihydrotestosterone to values approaching those found in individuals genetically deficient in the prostate isozyme”.

In data set [5], `CCN(CC)C(=O)[C@H]1CC[C@H]2[C@@H]3CC[C@H]4OC(=O)C=C[C@]4(C)[C@H]3CC[C@]12C` [L-682,299, 17β-(N-diethyl)carbamoyl-4-oxa-5α-androst-1-en-3-one] showed a Ki of under 0.1 nM. Further, in data set [5] (20 nM inhibitor, pH 7.2, 37° C.), the “velocity at infinite-time (vs)” value is recorded as “essentially zero”. Besides, in data set [5] (20 nM inhibitor, pH 7.2, 37° C., result in words), the inhibition over time result is “the inhibition developed slowly with time and resulted in total inhibition of the enzyme”. Also, in data set [5] (pH 7.2, read-out: second-order rate constant for binding to the type 2 isozyme), the kon at 0.02 µM came to 56000 M⁻¹ s⁻¹.

Broadly, the Km is the substrate concentration at which the rate is half of its maximum. For the molecule `C[C@]12CC[C@H]3[C@@H](CCC4=CC(=O)CC[C@@]43C)[C@@H]1CC[C@@H]2O` [testosterone], in data set [6], the Km was 7 µM and the “kcat for the type 1 enzyme” value amounted to 1.4 s⁻¹.

B1: type 2 5α-reductase (Homo sapiens) (protein)
chain: MQVQCQQSPVLAGSATLVALGALALYVAKPSGYGKHTESLKPAATRLPARAAWFLQELPSFAVPAGILARQPLSLFGPPGTVLLGLFCLHYFHRTFVYSLLNRGRPYPAILILRGTAFCTGNGVLQGYYLIYCAEYPDGWYTDIRFSLGVFLFILGMGINIHSDYILRQLRKPGEISYRIPQGGLFTYVSGANFLGEIIEWIGYALATWSLPALAFAFFSLCFLGLRAFHHHRFYLKMFEDYPKSRKALIPFIF
The term kcat denotes the maximal rate divided by the concentration of active sites. Consider B1, for which, in data set [7], the Km was 0.0246 ± 0.0007 µM, the kcat amounted to 0.075 ± 0.006 s⁻¹ and the kcat/Km is on record as 2.99±0.32×10^6 M^-1 s^-1.

(Values after patent US5756480A, “Treatment of hyperandrogenic conditions” (Merck & Co., Inc., priority 1996, dated 1998).)
